Source: patent EP0086647A2, “Pyrimidone compounds, their preparation, and pharmaceutical compositions containing them” (YAMANOUCHI PHARMACEUTICAL CO. LTD., priority 1982, dated 1983)
Counter-ions that a name gives are not always drawn.

Assays:
gastric acid secretion = assay: Acid inhibition, Shay (4hr.) / (Dog), results table; assay type: in vivo
[1] = Cytoprotective action (animal experiment methods, not described); assay type: in vivo; design: key: *: These compounds also have cytoprotective action

SMILES | Acid Inhibition Shay(4hr.) (mg./kg.) (Dog) (gastric acid secretion; dose 0.1mg (mg./kg.)) | Acid Inhibition Shay(4hr.) (mg./kg.) (Dog) (gastric acid secretion; dose 3mg (mg./kg.)) | cytoprotective action [1]
CCc1c(C)[nH]c(CCSCc2csc(N=C(N)N)n2)nc1=O [Example 27, 2-[2-[[[2-[(diaminomethylene)amino)-4-thiazolyl]methyl]thio]-ethyl]-5-ethyl-6-methyl-4(1H)-pyrimidone] | 90%(0.1mg) | – | –
CCN(CC)CCCc1c(C)[nH]c(CCSCc2csc(N=C(N)N)n2)nc1=O [Example 17, 2-(2-[[[2-((diaminomethylene)amino)-4-t:hiazolyl]methyl]-thio]ethyl]-5-(3-diethylaminopropyl)-6-methyl-4(1H)-pyrimidone tri-hydrochloride] | – | 83%(3mg) | –
CCCCc1c(C)[nH]c(CCSCc2csc(N=C(N)N)n2)nc1=O [Example 30, 2-[2-[[[2-[(diaminomethylene)amino]-4-thiazolyl]methyl]thio]-ethyl]-5-n-butyl-6-methy-1-4(1H)-pyrimidone di-hydrochloride] | 70%(0.1mg) | – | R=butyl*
Cc1[nH]c(CCSCc2csc(N=C(N)N)n2)nc(=O)c1CCC(C)C [Example 32, 2-[2-[[[2-[(diaminomethylene)amino]-4-thiazolyl]methyl]thio]-ethyl)-6-methyl-5-(3-methylbutyl)-4(lH)-pyrimidone di-hydrochloride] | – | – | R=iso-amyl*
CCCCCc1c(C)[nH]c(CCSCc2csc(N=C(N)N)n2)nc1=O.Cl.Cl [Example 31, 2-[2-[[[2-[(diaminomethylene)amino]-4-thiazolyl]methyl]thio]-ethyl]-6-methyl-5-n-pentyl-4(1H)-pyrimidone di-hydrochloride] | 95%(0.1mg) | – | R=amyl*
C#CCc1c(C)[nH]c(CCSCc2csc(N=C(N)N)n2)nc1=O [Example 29, 2-[2-[[[2-[(diaminomethylene)amino]-4-thiazolyl]methyl]thio]-ethyl]-6-methyl-5-(2-propinyl)-4(1H)-pyrimidone] | 95%(0.1mg) | – | –
CCCc1c(C)[nH]c(CCSCc2csc(N=C(N)N)n2)nc1=O [Example 28] | 60%(0.1mg) | – | –
